According to US10266549B2, “ULK1 inhibitors and methods using same” (SALK INSTITUTE FOR BIOLOGICAL STUDIES, priority 2014, dated 2019):

Tests used:
Assay in all cases: classic in vitro kinase assay, dose-response (Reaction Biology)
Format in all cases: biochemical
Conditions in all cases: dose-response curves
AuroraA kinase = AuroraA kinase (Homo sapiens (Human), UniProt O14965)
Protocol: (§1) Kinase inhibitor specificity profiling assays were first carried out using DiscoveRx KINOMEscan competition binding assay against a panel of 456 kinases (www dot discoverx dot corn) using 1 μM compound 14.
(§2) To use a more well-established measure of the selectivity of compound 14 against its top binding kinases, we examined dose-response curves for its inhibition of these kinases in a classic in vitro kinase assays. Here we tested the ten kinases most suppressed by compound 14 by the ATP binding assay. […] It is important to note that even though compound 14 inhibits these 4 kinase quite equivalently across all of the different assays we have examined, this is still greater selectivity than all but a handful of widely used ATP-competitive kinases inhibitors widely used in clinical oncology today. We next examined the ability of compound 14 to suppress signaling downstream of various kinases in cells in culture. […] Similarly, compound 14 inhibited FAK and AuroraA comparably to ULK1 in MEFs as well.

JAK2 = JAK2 (Homo sapiens (Human), UniProt O60674)
Protocol: as §1, §2

FAK = FAK (Homo sapiens (Human), UniProt Q05397)
Protocol: as §1, §2

Measured: inhibition relative to ULK1

Chain of FAK (Q05397 whole entry): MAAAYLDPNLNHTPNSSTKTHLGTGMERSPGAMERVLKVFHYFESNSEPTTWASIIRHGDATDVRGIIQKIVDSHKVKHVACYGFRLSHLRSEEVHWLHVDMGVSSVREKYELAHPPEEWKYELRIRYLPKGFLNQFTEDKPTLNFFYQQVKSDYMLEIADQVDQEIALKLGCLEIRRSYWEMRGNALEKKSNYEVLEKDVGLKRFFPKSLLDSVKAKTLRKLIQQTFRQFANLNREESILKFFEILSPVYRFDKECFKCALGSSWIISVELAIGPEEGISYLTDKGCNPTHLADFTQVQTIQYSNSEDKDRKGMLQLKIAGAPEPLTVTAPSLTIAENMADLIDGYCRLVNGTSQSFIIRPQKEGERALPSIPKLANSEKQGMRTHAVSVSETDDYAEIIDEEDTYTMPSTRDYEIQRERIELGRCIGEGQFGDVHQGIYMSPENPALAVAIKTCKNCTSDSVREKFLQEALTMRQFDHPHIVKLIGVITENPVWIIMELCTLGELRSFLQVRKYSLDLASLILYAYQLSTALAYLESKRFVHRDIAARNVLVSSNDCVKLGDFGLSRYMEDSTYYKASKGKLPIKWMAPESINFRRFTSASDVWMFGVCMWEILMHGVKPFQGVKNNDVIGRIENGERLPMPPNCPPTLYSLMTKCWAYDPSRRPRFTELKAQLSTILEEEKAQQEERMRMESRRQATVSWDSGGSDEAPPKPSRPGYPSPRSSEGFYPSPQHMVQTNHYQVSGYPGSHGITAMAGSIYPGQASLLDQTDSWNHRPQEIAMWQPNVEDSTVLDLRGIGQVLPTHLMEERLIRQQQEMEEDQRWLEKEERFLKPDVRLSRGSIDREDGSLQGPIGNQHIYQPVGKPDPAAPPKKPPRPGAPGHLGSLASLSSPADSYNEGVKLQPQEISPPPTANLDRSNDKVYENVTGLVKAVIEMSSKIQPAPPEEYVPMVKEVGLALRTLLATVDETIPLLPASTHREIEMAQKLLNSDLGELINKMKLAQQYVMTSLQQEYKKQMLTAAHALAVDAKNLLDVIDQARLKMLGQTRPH
Chain of JAK2 (O60674 whole entry): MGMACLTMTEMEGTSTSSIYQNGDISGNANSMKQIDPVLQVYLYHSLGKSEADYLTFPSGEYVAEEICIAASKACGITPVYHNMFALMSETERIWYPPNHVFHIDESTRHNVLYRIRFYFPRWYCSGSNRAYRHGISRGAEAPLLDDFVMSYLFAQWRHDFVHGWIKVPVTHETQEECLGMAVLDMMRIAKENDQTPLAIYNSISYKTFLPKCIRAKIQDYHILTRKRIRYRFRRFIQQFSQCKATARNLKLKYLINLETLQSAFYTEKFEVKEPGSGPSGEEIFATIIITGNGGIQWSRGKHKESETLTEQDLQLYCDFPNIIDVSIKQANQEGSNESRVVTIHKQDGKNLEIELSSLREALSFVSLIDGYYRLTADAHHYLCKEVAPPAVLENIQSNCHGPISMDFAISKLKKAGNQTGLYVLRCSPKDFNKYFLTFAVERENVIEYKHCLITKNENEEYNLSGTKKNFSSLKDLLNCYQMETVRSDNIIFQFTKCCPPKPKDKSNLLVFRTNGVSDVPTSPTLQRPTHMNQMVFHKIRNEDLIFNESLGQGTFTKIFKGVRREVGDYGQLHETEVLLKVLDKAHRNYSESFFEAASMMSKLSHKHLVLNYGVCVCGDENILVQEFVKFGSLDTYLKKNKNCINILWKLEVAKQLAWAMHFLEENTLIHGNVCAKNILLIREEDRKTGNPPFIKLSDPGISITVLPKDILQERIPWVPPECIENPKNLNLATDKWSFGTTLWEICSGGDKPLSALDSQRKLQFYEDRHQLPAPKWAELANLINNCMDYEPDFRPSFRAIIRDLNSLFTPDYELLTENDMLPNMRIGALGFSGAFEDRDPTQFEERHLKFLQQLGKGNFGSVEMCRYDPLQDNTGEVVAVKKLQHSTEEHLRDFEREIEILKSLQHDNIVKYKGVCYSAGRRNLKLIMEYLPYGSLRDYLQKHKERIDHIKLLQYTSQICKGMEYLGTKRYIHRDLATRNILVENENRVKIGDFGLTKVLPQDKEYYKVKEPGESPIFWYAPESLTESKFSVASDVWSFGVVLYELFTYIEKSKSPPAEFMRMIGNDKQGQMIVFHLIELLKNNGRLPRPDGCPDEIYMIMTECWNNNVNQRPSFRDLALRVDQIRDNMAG
Chain of AuroraA kinase (O14965 whole entry): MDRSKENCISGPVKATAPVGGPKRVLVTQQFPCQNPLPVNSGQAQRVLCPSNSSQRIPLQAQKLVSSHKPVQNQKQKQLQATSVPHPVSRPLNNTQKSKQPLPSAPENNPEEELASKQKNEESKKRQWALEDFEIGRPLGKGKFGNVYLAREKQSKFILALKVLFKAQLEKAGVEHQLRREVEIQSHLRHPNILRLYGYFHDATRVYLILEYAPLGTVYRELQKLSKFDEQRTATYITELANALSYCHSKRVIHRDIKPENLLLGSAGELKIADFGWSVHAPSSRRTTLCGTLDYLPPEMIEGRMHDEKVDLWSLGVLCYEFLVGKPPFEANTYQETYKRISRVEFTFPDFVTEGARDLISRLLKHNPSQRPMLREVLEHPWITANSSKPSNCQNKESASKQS

CNC(=O)c1ccccc1Nc1nc(Nc2cc(OC)c(OC)c(OC)c2)ncc1Br [compound 14, 2-(5-bromo-2-(3,4,5-trimethoxyphenylamino)pyrimidin-4-ylamino)-N-methylbenzamide]
equivalently inhibited: all assays above
